Reference: patent publication US9840515B2, “Protein kinase D inhibitors” (University of Pittsburgh—Of the Commonwealth System of …, priority 2010, dated 2017)
Like-named read-outs stand apart in the source and are kept apart here.

Columns and labels:
[1] = target: T1, PKD1 (Homo sapiens, UniProt Q15139); assay: IMAP-FP PKD1 assay; type: biochemical
T1 sequence (Q15139 1-912): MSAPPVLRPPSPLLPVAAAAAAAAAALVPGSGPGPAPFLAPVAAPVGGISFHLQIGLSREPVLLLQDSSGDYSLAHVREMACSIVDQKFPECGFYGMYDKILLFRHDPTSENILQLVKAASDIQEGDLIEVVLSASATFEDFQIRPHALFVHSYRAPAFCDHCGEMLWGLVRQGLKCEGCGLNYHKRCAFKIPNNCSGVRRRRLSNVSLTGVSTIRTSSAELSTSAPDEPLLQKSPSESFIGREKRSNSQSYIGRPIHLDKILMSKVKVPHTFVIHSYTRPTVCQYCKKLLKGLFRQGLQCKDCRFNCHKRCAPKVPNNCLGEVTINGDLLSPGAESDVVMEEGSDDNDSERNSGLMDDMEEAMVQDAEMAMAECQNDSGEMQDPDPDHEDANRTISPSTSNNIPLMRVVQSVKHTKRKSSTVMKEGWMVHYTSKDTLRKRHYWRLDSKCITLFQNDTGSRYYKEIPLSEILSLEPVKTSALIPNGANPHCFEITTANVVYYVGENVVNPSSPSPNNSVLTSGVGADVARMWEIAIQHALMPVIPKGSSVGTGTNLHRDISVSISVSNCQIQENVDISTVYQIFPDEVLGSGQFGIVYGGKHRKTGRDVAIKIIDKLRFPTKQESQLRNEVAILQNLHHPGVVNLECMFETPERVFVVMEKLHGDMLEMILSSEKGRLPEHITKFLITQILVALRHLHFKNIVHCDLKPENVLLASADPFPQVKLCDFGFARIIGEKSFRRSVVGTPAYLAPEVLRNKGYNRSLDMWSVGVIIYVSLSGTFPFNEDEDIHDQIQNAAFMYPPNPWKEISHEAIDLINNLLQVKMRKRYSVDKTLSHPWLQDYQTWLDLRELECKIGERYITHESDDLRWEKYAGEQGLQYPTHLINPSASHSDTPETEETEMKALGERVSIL
Text: See Sharlow, E. R., et. al., J Biol Chem, 283: 33516-33526, (2008). The assay established the concentration of inhibitor that is required to reduce PKD1 activity by 50% (IC50), as shown in Table 2 above.

[2] = target: T2, purified recombinant human PKD1 (Homo sapiens, UniProt Q15139); assay: radiometric PKD kinase activity assay; type: biochemical
T2 sequence (Q15139 1-912): T1 sequence (Q15139 1-912)
Method: The radiometric PKD kinase assay was carried out by co-incubating 0.5 μCi γ-32P-ATP (PerkinElmer, Boston, Mass.), 20 μM ATP, 50 ng purified recombinant human PKD (PKD1, PKD2, PKD3) proteins, and 2.5 μg Syntide-2 (Sigma) in 50 μl kinase buffer that contains 50 mM Tris-HCl, pH 7.5, 4 mM MgCl2, 10 mM β-mercaptoethanol. The reaction was carried out under sub-saturation conditions, such that the initial rate was within linear kinetic range. The reaction mixture was incubated at 30° C. for 10 min, followed by spotting 25 μl of the mix onto a Whatman P81 filter paper (Whatman Inc, Clifton, N.J.). The filter papers were then washed three times in 0.5% phosphoric acid, air-dried, and counted using a Beckman LS6500 multi-purpose scintillation counter (Beckman, Fullerton, Calif.).

[3] = target: T1, PKD1; assay: Cellular inhibition of PMA-induced PKD1 S916 autophosphorylation in LNCaP cells (Western blot densitometry); type: cell-based; set-up: endogenous in cells; host or cells: LNCaP prostate cancer cells; settings: for IC50: PKD1 autophosphorylation at S916 in LNCaP cells
Method: The compound to be tested was dissolved in DMSO at an initial concentration of 10 mM. LNCaP prostate cancer cells were pre-treated with DMSO or increasing concentrations of the compound for 45 min, followed by treatment with or without 100 nM phorbol 12-myristate 13-acetate (PMA), an activator of PKD, for 20 min. The cells were harvested for Western blot analysis.
Briefly, cells were lysed in lysis buffer containing 200 mM Tris-HCl, pH 7.4, 100 μM 4-(2-aminoethyl)benzenesulfonyl fluoride, 1 mM EGTA, and 1% Triton X-100. Protein concentration was determined using the BCA Protein Concentration Assay reagent kit (Pierce). Equal amounts of protein were subjected to SDS-PAGE followed by electrotransfer to nitrocellulose membranes. Membranes were blocked with 5% nonfat milk in Tris-buffered saline and then probed with primary antibodies for p-S916-PKD1 (Millipore), p-S744/748-PKD1 (Cell Signaling Technology), or GAPDH (Enzo), followed by anti-mouse or anti-rabbit secondary antibodies conjugated to horseradish peroxidase (Bio-Rad). The bands were detected by incubating with the enhanced chemiluminescence (ECL) Western blotting detection reagent (Amersham Biosciences) and exposing to X-ray films.

[4] = read-out: IC50 radiometric PKD1
[5] = radiometric kinase activity assay, in vitro, read-out: IC50 PKD1

Row | IC50 [1] | IC50 [2, 4] | melting point | IC50 IMAP-FP PKD1 [1] | Structure (SMILES) | IC50 [3] | IC50 [2, 5] | cellular activity fold lower than kb-NB142-70 [3]
1 | 24.1 ± 0.71 µM | 1.23 ± 0.21 µM | 280 to 282 °C |  | O=C1NCCC(O)c2c1oc1ccc(O)cc21 (centres unmarked) [kb-NB123-89, 5,7-Dihydroxy-2H,3H,4H,5H-azepino[5,6-d]benzo[b]furan-1-one] |  |  | 
2 |  |  |  |  | O=C1NCCCc2c1oc1ccc(O)cc21 [CID755673, 7-Hydroxy-2,3,4,5-tetrahydro-[1]benzoxolo[2,3-c]azepin-1-one, reference compound] | 11.8 µM | 0.182 ± 0.027 µM | 
3 |  |  | > 300 °C | not inhibitory | CC(=O)Nc1ccc2[nH]c3c(c2c1)CCNC3=O [kb-NB123-93, N-(2,3,4,9-Tetrahydro-1-oxo-1H-pyrido[3,4-b]indol-6-yl)-acetamide] |  |  | 
4 | 38.2 ± 1.17 µM |  | 220 to 224 °C |  | Cc1ccc(S(=O)(=O)NN=C2CCNC(=O)c3oc4ccc(O)cc4c32)cc1 [kb-NB142-11, 7-Hydroxy-5-({[(4-methylphenyl)sulfonyl]amino}azamethylene)-2H,3H,4H-azepino[5,6-d]benzo[b]furan-1-one] |  |  | 
5 |  |  | 192 to 194 °C | not inhibitory | C=CCOc1ccc2oc3c(c2c1Cl)CCCNC3=O [kb-NB96-50, 7-Allyloxy-6-chloro-2,3,4,5-tetrahydro-[1]benzoxolo[2,3-c]azepin-1-one] |  |  | 
6 | 19.4 ± 1.4 µM | 1.57 ± 0.2 µM | 244 to 247 °C |  | O=C1NCCc2c1[nH]c1ccc(O)cc21 [kb-NB123-59, 2,3,4,9-Tetrahydro-6-hydroxy-1H-pyrido[3,4-b]indol-1-one] |  |  | 
7 | 1.3 ± 0.05 µM | 0.24 µM | > 300 °C |  | O=C1NCCCc2c1oc1ccc(O)c(F)c21 [kb-NB96-21, 6-Fluoro-7-hydroxy-2,3,4,5-tetrahydro-[1]benzoxolo[2,3-c]azepin-1-one] |  |  | 
8 | 2.4 ± 0.3 µM | 1.58 µM | 255 to 257 °C |  | C=CCc1c(O)ccc2oc3c(c12)CCCNC3=O [kb-NB96-02, 6-Allyl-7-hydroxy-2,3,4,5-tetrahydro-[1]benzoxolo[2,3-c]azepin-1-one] |  |  | 
9 |  |  | 103 to 110 °C | not inhibitory | O=C1NCCC(=NOCc2ccccc2)c2c1oc1ccc(O)cc21 [kb-NB142-10, 7-Hydroxy-5-[(phenylmethoxy)azamethylene]-2H,3H,4H-azepino[5,6-d]benzo[b]furan-1-one] |  |  | 
10 | > 100 µM |  | 327 to 332 °C |  | O=C1NCCCc2c1oc1cc(Cl)c(O)cc21 [kb-NB96-47-5, 8-Chloro-7-hydroxy-2,3,4,5-tetrahydro-[1]benzoxolo[2,3-c]azepin-1-one] |  |  | 
11 | 1 ± 0.1 µM | 0.24 µM | > 300 °C |  | C/C=C/c1c(O)ccc2oc3c(c12)CCCNC3=O [kb-NB96-30, 6-[(E)-2-(Prop-1-enyl)]-7-hydroxy-2,3,4,5-tetrahydro-[1]benzoxolo[2,3-c]azepin-1-one] |  |  | 
12 |  |  | 298 to 301 °C | not inhibitory | O=C1NCCCc2c1oc1cc(Cl)c(O)c(Cl)c21 [kb-NB96-43, 6,8-Dichloro-7-hydroxy-2,3,4,5-tetrahydro-[1]benzoxolo[2,3-c]azepin-1-one] |  |  | 
13 | 14.9 ± 1.2 µM | 0.85 ± 0.11 µM | > 300 °C |  | O=C1NCCC(=O)c2c1oc1ccc(O)cc21 [kb-NB123-63, 7-Hydroxy-2H,3H,4H-azepino[5,6-d]benzo[b]furan-1,5-dione] |  |  | 
14 |  |  | > 300 °C | not inhibitory | CC(=O)Nc1ccc2[nH]c3c(c2c1)CCCNC3=O [kb-NB123-94] |  |  | 
15 |  |  |  | not inhibitory | O=C1NCCCc2c1[nH]c1ccc(OCc3ccccc3)cc21 [kb-NB123-53, 3,4,5,10-Tetrahydro-7-benzyloxy-azepino[3,4-b]indol-1(2H)-one] |  |  | 
16 |  | 0.45 ± 0.05 µM | 265 to 268 °C |  | CN1CCSc2c(sc3ccc(O)cc23)C1=O [kb-NB165-17, 2,3-Dihydro-4-methyl-9-hydroxy-[1]benzothieno[2,3-f]-1,4-thiazepin-5-one] |  |  | 
17 |  | 0.757 µM | 250 to 254 °C |  | NCCN1CCSc2c(sc3ccc(O)cc23)C1=O [kb-NB165-75, 2,3-Dihydro-4-(2-aminoethyl)-9-hydroxy-[1]benzothieno[2,3-f]-1,4-thiazepin-5-one] |  |  | 
18 | 47.1 ± 2.5 µM | 9.68 ± 1.01 µM | 202 to 207 °C |  | Nc1ccc2[nH]c3c(c2c1)CCCNC3=O [kb-NB142-01] |  |  | 
19 |  | 3.17 µM | 198.6 to 199 °C |  | Nc1ccc2sc3c(c2c1)SCCNC3=O [mcf292-03, 3,4-Dihydro-9-amino-[1]benzothieno[2,3-f]-1,4-thiazepin-5(2H)-one] |  |  | 
20 | 74.4 ± 2.2 µM | 15.7 ± 0.19 µM | 280 to 282 °C |  | Nc1ccc2[nH]c3c(c2c1)CCNC3=O [kb-NB142-08, 6-Amino-2,3,4,9-tetrahydro-1H-pyrido[3,4-b]indol-1-one] |  |  | 
21 |  | 39.6 µM | 144 to 145 °C |  | c1ccc(COc2ccc3sc4c(c3c2)SCCNC4)cc1 [kb-NB165-81, 2,3,4,5-Tetrahydro-9-benzyloxy-[1]benzothieno[2,3-f]-1,4-thiazepine] |  |  | 
22 | 21.7 ± 0.52 µM | 1.13 µM | 234 to 236 °C |  | O=C1NCCC(=NNc2ccccc2)c2c1oc1ccc(O)cc21 [kb-NB142-05, 7-Hydroxy-5-[(phenylamino)azamethylene]-2H,3H,4H-azepino[5,6-d]benzo[b]furan-1-one] |  |  | 
23 |  |  | 208 to 210 °C | not inhibitory | O=C1NCCc2c1[nH]c1ccc(OCc3ccccc3)cc21 [kb-NB123-52, 2,3,4,9-Tetrahydro-6-benzyloxy-1H-pyrido[3,4-b]indol-1-one] |  |  | 

Row | Structure (SMILES) | IC50 [1] | IC50 [2, 4] | melting point | IC50 IMAP-FP PKD1 [1] | IC50 [3] | IC50 [2, 5] | cellular activity fold lower than kb-NB142-70 [3]
24 | O=C1NCCCc2c1oc1ccc(O)c(Cl)c21 [kb-NB77-88, 6-Chloro-7-hydroxy-2,3,4,5-tetrahydro-[1]benzoxolo[2,3-c]azepin-1-one] | 1.4 ± 0.1 µM | 0.89 µM | > 300 °C |  |  |  | 
25 | O=C1NCCSc2c1sc1ccc(O)c(I)c21 [kb-NB165-31, 3,4-Dihydro-9-hydroxy-10-iodo-[1]benzothieno[2,3-f]-1,4-thiazepin-5(2H)-one] |  | 0.11 ± 0.02 µM | 128 °C (dec.) |  | 8.6 ± 2 µM | 0.114 µM | 4 fold
